Results on 5 molecules are retold here after patent publication US7393868B2, “AMPA receptor potentiators” (Eli Lilly and Company, priority 2005, dated 2008).

For the assay, the target named is T1, human iGluR4 (Homo sapiens, UniProt P48058).
T1 construct: expressed in transfected cells; host or cells: HEK293
T1 sequence (P48058 21-902): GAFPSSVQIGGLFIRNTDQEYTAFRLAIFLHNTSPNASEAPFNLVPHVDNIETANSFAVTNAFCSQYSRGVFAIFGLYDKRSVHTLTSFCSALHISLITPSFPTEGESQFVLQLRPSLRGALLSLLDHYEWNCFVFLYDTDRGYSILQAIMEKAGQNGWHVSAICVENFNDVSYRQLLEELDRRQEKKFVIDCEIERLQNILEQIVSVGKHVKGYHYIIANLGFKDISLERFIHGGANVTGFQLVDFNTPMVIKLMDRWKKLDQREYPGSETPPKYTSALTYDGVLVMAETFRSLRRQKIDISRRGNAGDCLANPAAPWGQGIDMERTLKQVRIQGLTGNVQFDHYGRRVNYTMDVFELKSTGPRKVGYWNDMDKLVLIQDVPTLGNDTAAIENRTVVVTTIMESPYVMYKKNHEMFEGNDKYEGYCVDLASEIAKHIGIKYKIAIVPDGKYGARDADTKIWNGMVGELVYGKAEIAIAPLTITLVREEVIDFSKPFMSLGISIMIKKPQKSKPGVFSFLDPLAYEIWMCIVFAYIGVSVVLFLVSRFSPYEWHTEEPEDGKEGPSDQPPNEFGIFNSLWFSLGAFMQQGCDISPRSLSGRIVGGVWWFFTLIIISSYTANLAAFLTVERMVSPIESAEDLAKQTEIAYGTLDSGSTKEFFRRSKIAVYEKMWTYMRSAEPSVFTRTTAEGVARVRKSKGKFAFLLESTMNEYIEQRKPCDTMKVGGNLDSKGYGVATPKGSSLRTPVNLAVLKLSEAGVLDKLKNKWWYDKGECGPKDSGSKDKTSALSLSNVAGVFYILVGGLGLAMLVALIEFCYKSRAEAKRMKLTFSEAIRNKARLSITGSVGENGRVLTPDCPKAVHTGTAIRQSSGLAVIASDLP
As to the kind of experiment: Whole-cell voltage clamp potentiation of glutamate-evoked current in HEK293 cells stably expressing human iGluR4. It is filed as cell-based. The settings on record: whole-cell voltage clamp at −60 mV, potentiation of current evoked by 1 mM glutamate, Hill equation fit. An excerpt: HEK293 cells stably expressing human iGluR4(obtained as described in European Patent Application Publication No. EP-A1-0583917) are used in the electrophysiological characterization of AMPA receptor potentiators. The extracellular recording solution contains (in mM): 140 NaCl, 5 KCl, 10 HEPES, 1 MgCl2, 2 CaCl2, 10 glucose, pH=7.4 with NaOH, 295 mOsm kg−1. The intracellular recording solution contains (in mM): 140 CsCl, 1 MgCl2, 10 HEPES, (N-[2-hydroxyethyl]piperazine-N1-[2-ethanesulfonic acid]) 10 EGTA (ethylene-bis(oxyethylene-nitrilo)tetraacetic acid), pH=7.2 with CsOH, 295 mOsm kg−1. With these solutions, recording pipettes have a resistance of 2-3 MΩ. Using the whole-cell voltage clamp technique (Hamill et al. (1981) Pflügers Arch., 391: 85-100), cells are voltage-clamped at −60 mV and control current responses to 1 mM glutamate are evoked. Responses to 1 mM glutamate are then determined in the presence of test compound. Compounds are deemed active in this test if, at a test concentration of 10 μM or less, they produce a greater than 10% increase in the value of the current evoked by 1 mM glutamate.
In order to determine the potency of test compounds, the concentration of the test compound, both in the bathing solution and co-applied with glutamate, is increased in half log units until the maximum effect was seen. Data collected in this manner are fit to the Hill equation, yielding an EC50 value, indicative of the potency of the test compound. Reversibility of test compound activity is determined by assessing control glutamate 1 mM responses. Once the control responses to the glutamate challenge are re-established, the potentiation of these responses by 100 μM cyclothiazide is determined by its inclusion in both the bathing solution and the glutamate-containing solution. In this manner, the efficacy of the test compound relative to that of cyclothiazide can be determined.
Turning to `CC(C)S(=O)(=O)Nc1ccsc1-c1ccc(-c2cc(F)c(O)c(F)c2C#N)cc1` [Example 56, Propane-2-sulfonic acid [2-(2′-cyano-3′,5′-difluoro-4′-hydroxy-biphenyl-4-yl)-thiophen-3-yl]-amide], the half-maximal effective concentration (EC50) (commonly the concentration needed to bring the measured effect to its halfway point) stood at 151 nM. The figure for `CC(C)S(=O)(=O)Nc1ccsc1-c1ccc(-c2ccc(C(=O)O)cc2C#N)cc1` [Example 72, 2-Cyano-4′-[3-(propane-2-sulfonylamino)-thiophen-2-yl]-biphenyl-4-carboxylic acid] is 188 nM; for `CC(C)S(=O)(=O)Nc1ccsc1-c1ccc(-c2cc(F)c(O)c(F)c2)cc1` [Example 11, Propane-2-sulfonic acid [2-(3′,5′-difluoro-4′-hydroxy-biphenyl-4-yl)-thiophen-3-yl]-amide] it is 720 nM. As for `CC(C)S(=O)(=O)Nc1cnccc1-c1ccc(-c2ccc(C(=O)O)cc2C#N)cc1` [Example 51, 2-Cyano-4′-[3-(propane-2-sulfonylamino)-pyridin-4-yl]-biphenyl-4-carboxylic acid], the EC50 was determined as 2460 nM. Then `COc1cc(C(=O)O)ccc1-c1ccc(-c2ccccc2NS(=O)(=O)C(C)C)cc1` [Example 46, 2″-Methoxy-2-(propane-2-sulfonylamino)-[1,1′;4′,1″]terphenyl-4″-carboxylic acid], with 977 nM.
